{
  "source": "patent US11701379B2",
  "about": "“In vitro and in vivo intracellular delivery of siRNA via self-assembled nanopieces” (Rhode Island Hospital, priority 2018, dated 2023)",
  "system": "MMP-13 mRNA",
  "assay": "MMP-13 molecular beacon validation in chondrocytes with/without IL-1β",
  "assay_type": "cell-based, mouse",
  "details": "realtime rtPCR",
  "method": "Fluorescence labeled GAPDH molecular beacon and fluorescence labeled MMP-13 molecular beacon or fluorescence labeled scrambled molecular beacon delivered with Nanopieces was added into chondrocytes under standard cell culture conditions or stimulated with 10 ng/mL IL-1β (FIG. 29).\nUsing an established method (Tyagi et al Nat. Biotech, 1998, 16:49-53), MBs were designed to target mouse MMP-13 or GAPDH mRNA with a fluorophore/quench pair. Scramble sequence MB (Scramble) was verified to not bind with any mouse mRNA via BLAST. In vitro delivery and validation: MBs were delivered into chondrocytes by Nanopieces. Specifically, after stimulation with IL-1β for 24 hours, chondrocytes were co-transfected GAPDH and scramble MBs or GAPDH and MMP-13 MBs via Nanopieces. Real time RT-PCR and fluorescence microscopy were used to verify the stimulation of MMP-13 expression and the successful fluorescence signal resulted from MMP-13 MB.\nTo test the efficacy of mRNA detection in chondrocytes using MBs delivered by Nanopieces, primary mouse chondrocytes were transfected with MBs either with or without IL-1β treatment. Before IL-1β treatment, the housekeeping GAPDH MB was detected while the MMP-13 MB was not (FIG. 29, left panels). In contrast, after IL-1β treatment, both GAPDH MB and MMP-13 MB were detected, indicating the induction of MMP-13 mRNA levels by IL-1β (FIG. 29, right panels). […]",
  "data": [
    {"substance": "IL-1β: cytokine used to stimulate chondrocytes", "values": [
      {"measurement": "up-regulation of MMP-13 mRNA level", "value": "about 10 times"}
    ]}
  ]
}
